Values joined by “and” are separate entries in the source; they are usually repeats but may differ in a detail not shown here. Equal entries are not always repeated. “Also recorded” adds a separate entry of the source.
What was measured:
T47D cells = assay: E1 induced proliferation of T47D cells, 7 days, cell count; type: cell-based, human; conditions: FIG. 1
Description: Two days prior to testing of compounds, growth medium was changed to medium without phenol red, supplemented with 2 mmol^·l^−1 Glutamax and 4% FBS depleted of lipophilic components (including the endogenous estrogenic substances) (Hyclone, GE Healthcare Life Sciences, USA). Two days after the medium replacement, the cells were harvested, counted and resuspended in a medium. Cells were dispensed with liquid dispenser Multidrop (Thermo Fisher Scientific, Waltham, USA), to the cell culture treated, 12-well plates (Corning Inc., NY, USA) at 100 000 cells/well in 1 mL of total media volume. Compounds diluted in the medium were added 24 h later and cells were incubated for 7 more days with or without 1 μmol^·l^−1 E1. Growth medium was changed during the experiment on day 3, and freshly diluted compounds were added to cells again. After 7 days of cell cultivation with compounds, cells were harvested and counted. Cell number was normalized and 100% was attributed to cells cultivated in the presence of 1 μmol^·l^−1 E1 and 0% to the cells cultivated without any added compound.

CEM = assay: MTT cytotoxicity assay, CEM; type: cell-based; conditions: Homo sapiens, CCRF-CEM
Description: (§1) Compounds 5, 6, 7, 9, 14 and 15 were used for evaluation of antitumor activity. MTT cytotoxicity assay was used in vitro on cell lines derived from normal tissues and from tumors. Specifically, these were the K562 line (human myeloid leukemia), K562-Tax (human myeloid leukemia resistant to taxol and overexpressing PgP protein for multidrug resistance), CEM (T-lymphoblastic leukemia), CEM-DNR bulk (T-lymphoblastic leukemia resistant doxorubicin, lacking the expression of the target gene for inhibitors of topoisomerase II alpha), A549 line (human lung adenocarcinoma), HCT116p53 wt (human colon cancer), HCT116p53−/− (human colon cancer, mutant p53), U2OS line of human osteosarcoma and two fibroblast lines MRC5 and BJ as examples of non-tumor cells. Expression characteristics, profiles of susceptibility to classical antitumor drugs and methodology of the MTT cytotoxicity assay were repeatedly published (e.g. Noskova et al. Neoplasma 2002, 49, 418; S̆arek et. al. J. Med. Chem. 2003, 46, 25, 5402).

CEM-DNR-bulk = assay: MTT cytotoxicity assay, CEM-DNR-bulk; type: cell-based
Description: as §1

K562 = assay: MTT cytotoxicity assay, K562; type: cell-based; conditions: Homo sapiens
Description: as §1

K562-Tax = assay: MTT cytotoxicity assay, K562-Tax; type: cell-based; conditions: Homo sapiens
Description: as §1

A549 = assay: MTT cytotoxicity assay, A549; type: cell-based; conditions: Homo sapiens
Description: as §1

HCT116p53 wt = assay: MTT cytotoxicity assay, HCT116p53 wt; type: cell-based; conditions: Homo sapiens
Description: as §1

HCT116p53-/- = assay: MTT cytotoxicity assay, HCT116p53-/-; type: cell-based; conditions: Homo sapiens
Description: as §1

U2OS = assay: MTT cytotoxicity assay, U2OS; type: cell-based; conditions: Homo sapiens
Description: as §1

BJ = assay: MTT cytotoxicity assay, BJ fibroblasts; type: cell-based; conditions: Homo sapiens, non-tumor fibroblasts
Description: as §1

17βHSD = assay: Inhibition of 17βHSD in vivo, E2 in plasma of mice; parameters: species or system mice (NMRI); conditions: 20 mg/kg daily, orally; for E2 in plasma, individual mice: 20 mg/kg
embryo = assay: Toxicity in the CAM model, dead and surviving embryos; type: in vivo, White Leghorn eggs; conditions: 50 μmol·l^−1, after 6 days of treatment, FIG. 2C
Description: The toxicity after 6 days of the treatment was characterized by the number of dead embryos, eventual visible macroscopic abnormalities were evaluated as well.

human 17βHSD1 [1] = biological target: T1, human 17βHSD1 (Homo sapiens, UniProt P14061); assay: 17βHSD inhibition in CHO cells transfected with human 17βHSD1, E1 in supernatant; type: cell-based; parameters: expressed in transfected cells; conditions: 10 μmol·l^−1
T1 sequence (P14061 1-328): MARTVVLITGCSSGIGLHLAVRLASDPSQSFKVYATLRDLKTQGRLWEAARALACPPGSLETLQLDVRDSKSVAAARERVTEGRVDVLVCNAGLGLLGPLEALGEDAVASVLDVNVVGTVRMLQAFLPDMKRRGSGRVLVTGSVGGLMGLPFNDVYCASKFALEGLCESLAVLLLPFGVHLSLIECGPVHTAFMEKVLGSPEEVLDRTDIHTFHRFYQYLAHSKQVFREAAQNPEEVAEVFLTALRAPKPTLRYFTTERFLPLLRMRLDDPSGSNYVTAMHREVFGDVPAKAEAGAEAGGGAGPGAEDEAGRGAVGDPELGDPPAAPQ
Description: (§2) For this experiment, non-cytotoxic concentrations of estrone derivative (10 μmol·l^−1) were used. E1 levels were determined by an immuno-enzymatic assay.

human 17βHSD1 [2] = biological target: T1, human 17βHSD1; assay: 17βHSD inhibition in MCF-7 cells transfected with human 17βHSD1, E1 in supernatant; type: cell-based; parameters: expressed in transfected cells; host or cells: MCF-7; conditions: 10 μmol·l^−1
Description: as §2

COc1ccc(CC[C@@H]2CC(=O)[C@@]3(C)CC[C@@H]4c5ccc(O)cc5CC[C@H]4[C@H]23)cc1 [Compound 9, 3-Hydroxy-15β-(4-methoxyphenethyl)-estra-1,3,5 (10)-trien-17-one]
effect on T47D proliferation, compound alone (T47D cells; 1 μmol·l^−1, without E1, 7 days): weakly pro-proliferative
effect on E1-induced proliferation of T47D cells (T47D cells; incubated together with 0.1 nmol·l^−1 E1, 7 days): reverses the pro-proliferative activity of E1; also recorded: blocks E1-induced proliferation
IC50 (CEM): 21.4 µM
IC50 (CEM-DNR-bulk): 22.1 µM
IC50 (K562): 27.7 µM
IC50 (K562-Tax): 9.12 µM
IC50 (A549): 41 µM
IC50 (HCT116p53 wt): 29.4 µM
IC50 (HCT116p53-/-): 35.7 µM
IC50 (U2OS): 45.3 µM
IC50 (BJ): > 50 µM
E2 in plasma, mean value ± σ (17βHSD; 7 days): 5693 ± 1034 pg/mL
E2 in plasma, individual mice (17βHSD; 7 days): 4927 pg/mL and 4357 pg/mL and 6020 pg/mL and 7379 pg/mL and 5857 pg/mL and 5617 pg/mL
E2 in plasma, mean value ± σ (17βHSD; 14 days): 3874 ± 1253 pg/mL
E2 in plasma, individual mice (17βHSD; 14 days): 6020 pg/mL and 2668 pg/mL and 2657 pg/mL and 3566 pg/mL and 4312 pg/mL and 4025 pg/mL
toxicity, dead/alive eggs (embryo): No specific toxicity
E1 in supernatant, CHO (human 17βHSD1 [1]; 8 hr.): 1171 pg/mL
E1 in supernatant, CHO (human 17βHSD1 [1]; 24 hr.): 739 pg/mL
E1 in supernatant, MCF-7 (human 17βHSD1 [2]; 8 hr.): 1300 pg/mL
E1 in supernatant, MCF-7 (human 17βHSD1 [2]; 24 hr.): 1182 pg/mL

CCOc1ccc(CC[C@@H]2CC(=O)[C@@]3(C)CC[C@@H]4c5ccc(O)cc5CC[C@H]4[C@H]23)cc1 [Compound 12, 15β-(4-Ethoxyphenethyl)-3-hydroxy-estra-1,3,5(10)-trien-17-one]
melting point: 173 °C
